Consider three compounds from patent publication US6344473B1, “Imidazoles useful as nitric oxide synthase inhibitors” (G.D. Searle & Co., priority 2000, dated 2002).

One experiment concerns the target hiNOS (Homo sapiens, UniProt P35228). Description: Citrulline assay for nitric oxide synthase, human in vitro enzyme data, hiNOS. Conditions: human inducible NOS. Type of experiment: biochemical.
A further experiment has as its target hecNOS (Homo sapiens, UniProt P29474). Description: Citrulline assay for nitric oxide synthase, human in vitro enzyme data, hecNOS. Type of experiment: biochemical. Particulars: human endothelial constitutive NOS.
The next experiment addresses hncNOS (Homo sapiens, UniProt P29475). Description: Citrulline assay for nitric oxide synthase, human in vitro enzyme data, hncNOS. Conditions: human neuronal constitutive NOS. Type of experiment: biochemical.
In experiment [1] the test system is plasma nitrites induced by endotoxin (LPS). Kind of experiment: Low Dose LPS in vivo low-endotoxin assay (plasma nitrites). Conditions: mouse.

Structures can show the parent of a compound that is named as a salt.

As a reminder, the IC50 is the point on the concentration scale where inhibition reaches its midpoint. A lower IC50 goes with greater potency. `Cc1noc(=O)n1CCCC[C@H](NC(=O)OC(C)(C)C)C(=O)O` [Example 1, αS-[[(1,1-dimethylethoxy)carbonyl]amino]-4,5-dihydro-3-methyl-5-oxo-1,2,4-oxadiazole-4-hexanoic acid]: the IC50 on hiNOS, at hecNOS and at hncNOS was more than 1000 µM each time.

On to `Cc1noc(=O)n1CCCCC(N)C(=O)O` (centres unmarked) [Example 2, αS-amino-4,5-dihydro-3-methyl-5-oxo-1,2,4-oxadiazole-4-hexanoic acid, monohydrochloride], for which the figures for the “Low Dose LPS in vivo Effective Dose (p.o.), inhibition” value in experiment [1] (3 mg/kg/day p.o.) and in experiment [1] (10 mg/kg/day p.o.) were 39% inh and 42% inh, respectively.

Regarding `CCOC(=O)[C@@H](N)CCCCn1c(C)noc1=O` [Example 3, ethyl αS-amino-4,5-dihydro-3-methyl-5-oxo-1,2,4-oxadiazole-4-hexanoate, monohydrochloride], the IC50 against hiNOS was found to be 124 µM; on hecNOS it was 1430 µM; against hncNOS it was 200 µM.
